Measurements taken from patent publication US10597388B2, “Pyridazinone herbicides” (FMC CORPORATION, priority 2014, dated 2020).

How the values were obtained:
Assay in all cases: Test E greenhouse herbicide test, pre- and postemergence
Format in all cases: in vivo
[1] = system: dayflower (Virginia (VA) dayflower, Commelina virginica)
Method in brief: (§1)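 Visual ratings, 0 for no effect up to 100 for complete control, were taken relative to controls 14 to 21 d after greenhouse treatment. Applications used a surfactant-containing non-phytotoxic solvent formulation, sprayed either preemergence on silt loam-sown seed or postemergence on 1- to 4-leaf plants 2-18 cm tall in peat-based potting medium.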

[2] = system: Italian ryegrass (Lolium multiflorum)
Method in brief: as §1

[3] = system: wild poinsettia (Euphorbia heterophylla)
Method in brief: as §1

[4] = system: barnyardgrass (Echinochloa crus-galli)
Method in brief: as §1

[5] = system: momingglory (Ipomoea coccinea); details: Preemergence
Method in brief: as §1

[6] = system: surinam grass (Brachiaria decumbens); details: Preemergence
Method in brief: as §1

[7] = system: crabgrass, large (large crabgrass, Digitaria sanguinalis); details: Preemergence
Method in brief: as §1

[8] = system: nightshade (eastern black nightshade, Solanum ptycanthum); details: Preemergence
Method in brief: as §1

[9] = system: field bindweed (Convolvulus arvensis)
Method in brief: as §1

[10] = system: panicum, fall (fall panicum, Panicum dichotomiflorum)
Method in brief: as §1

[11] = system: goosegrass (Eleusine indica); details: Preemergence
Method in brief: as §1

[12] = system: beggarticks (hairy beggarticks, Bidens pilosa)
Method in brief: as §1

[13] = system: corn (Zea mays)
Method in brief: as §1

[14] = 62 g ai/ha, Postemergence, scale 0 to 100 (0 no effect, 100 complete control)
[15] = 62 g ai/ha, Preemergence, scale 0 to 100 (0 no effect, 100 complete control)
[16] = 125 g ai/ha, Postemergence, scale 0 to 100 (0 no effect, 100 complete control)
[17] = 125 g ai/ha, Preemergence, scale 0 to 100 (0 no effect, 100 complete control)
[18] = 250 g ai/ha, Postemergence, scale 0 to 100 (0 no effect, 100 complete control)
[19] = Postemergence, 31 g ai/ha, visual, scale 0 no effect to 100 complete control
[20] = Preemergence, 31 g ai/ha, scale 0 to 100, 0 no effect, 100 complete control
[21] = Preemergence, 250 g ai/ha, visual, scale 0 no effect to 100 complete control
[22] = 125 g ai/ha, scale 0 to 100 (0 no effect, 100 complete control)
[23] = 31 g ai/ha, scale 0 to 100, 0 no effect, 100 complete control
[24] = 250 g ai/ha, visual, scale 0 no effect to 100 complete control
[25] = 62 g ai/ha, scale 0 to 100 (0 no effect, 100 complete control)

CC(=O)Oc1c(C)nn(C)c(=O)c1-c1c(C)cc(C)c2ccccc12 [Compound 153]
25: Plant response rating, Barnyardgrass [4, 19]
60: Plant response rating, Poinsettia, Wild [3, 17] | Plant response rating, Goosegrass [11, 22]
0: Plant response rating, Corn [13, 14] | Plant response rating, Corn [13, 15] | Plant response rating, Corn [13, 16] | Plant response rating, Corn [13, 18] | Plant response rating, Corn [13, 19] | Plant response rating, Corn [13, 20]
10: Plant response rating, Corn [13, 17]
100: Plant response rating, Ryegrass, Italian [2, 17] | Plant response rating, Ryegrass, Italian [2, 20] | Plant response rating, Ryegrass, Italian [2, 21] | Plant response rating, Morningglory [5, 24] | Plant response rating, Surinam Grass [6, 24] | Plant response rating, Nightshade [8, 24] | Plant response rating, Field Bindweed [9, 15] | Plant response rating, Field Bindweed [9, 16] | Plant response rating, Field Bindweed [9, 17] | Plant response rating, Field Bindweed [9, 21] | Plant response rating, Panicum, Fall [10, 17] | Plant response rating, Panicum, Fall [10, 20] | Plant response rating, Panicum, Fall [10, 21] | Plant response rating, Beggarticks [12, 14] | Plant response rating, Beggarticks [12, 15] | Plant response rating, Beggarticks [12, 16] | Plant response rating, Beggarticks [12, 17] | Plant response rating, Beggarticks [12, 18] | Plant response rating, Beggarticks [12, 19] | Plant response rating, Beggarticks [12, 20] | Plant response rating, Beggarticks [12, 21]
80: Plant response rating, Dayflower, VA [1, 20] | Plant response rating, Barnyardgrass [4, 18] | Plant response rating, Crabgrass, Large [7, 24] | Plant response rating, Field Bindweed [9, 19]
40: Plant response rating, Poinsettia, Wild [3, 20] | Plant response rating, Barnyardgrass [4, 14] | Plant response rating, Goosegrass [11, 25] | Plant response rating, Goosegrass [11, 23]
90: Plant response rating, Dayflower, VA [1, 14] | Plant response rating, Dayflower, VA [1, 16] | Plant response rating, Dayflower, VA [1, 17] | Plant response rating, Dayflower, VA [1, 21] | Plant response rating, Ryegrass, Italian [2, 14] | Plant response rating, Ryegrass, Italian [2, 16] | Plant response rating, Barnyardgrass [4, 21] | Plant response rating, Morningglory [5, 22] | Plant response rating, Surinam Grass [6, 22] | Plant response rating, Field Bindweed [9, 14] | Plant response rating, Field Bindweed [9, 20] | Plant response rating, Panicum, Fall [10, 14] | Plant response rating, Panicum, Fall [10, 16] | Plant response rating, Panicum, Fall [10, 18]
95: Plant response rating, Dayflower, VA [1, 18] | Plant response rating, Ryegrass, Italian [2, 18] | Plant response rating, Nightshade [8, 22] | Plant response rating, Field Bindweed [9, 18]
50: Plant response rating, Poinsettia, Wild [3, 16] | Plant response rating, Poinsettia, Wild ([3]; Preemergence, scale 0 to 100, 0 no effect, 100 complete control) | Plant response rating, Barnyardgrass [4, 15] | Plant response rating, Barnyardgrass [4, 16] | Plant response rating, Surinam Grass [6, 23]
30: Plant response rating, Poinsettia, Wild [3, 14]
70: Plant response rating, Barnyardgrass [4, 17] | Plant response rating, Crabgrass, Large [7, 25] | Plant response rating, Crabgrass, Large [7, 23] | Plant response rating, Nightshade [8, 23]
85: Plant response rating, Dayflower, VA [1, 15] | Plant response rating, Dayflower, VA [1, 19] | Plant response rating, Ryegrass, Italian [2, 19] | Plant response rating, Morningglory [5, 23] | Plant response rating, Panicum, Fall [10, 19]
20: Plant response rating, Poinsettia, Wild [3, 19] | Plant response rating, Barnyardgrass [4, 20] | Plant response rating, Corn [13, 21]
75: Plant response rating, Poinsettia, Wild [3, 18] | Plant response rating, Poinsettia, Wild [3, 21] | Plant response rating, Crabgrass, Large [7, 22] | Plant response rating, Goosegrass [11, 24]
